Common to all, as to assay: NCI anticancer screen, dose series, 48 h
Test [1] deals with A549.
Test [2] deals with NCI-H460.
In test [3] the test system is UACC-62.
The subject of test [4] is DU-145.
Test [5] relates to SW-620.
The test system of test [6] is NCI-H226.
Test [7] has as its system CCRF-CEM.
For test [8], the system named is RPMI-8226.
Test [9] relates to HOP-92.
Test [10] concerns Hs-578T.
Test [11] deals with U-251.
Test [12] deals with 786-0.
For test [13], the system named is SK-MEL-28.
For test [14], the system named is MCF7.
Test [15] concerns K562.
The subject of test [16] is CAKI-1.
For test [17], the system named is SNB-75.
Test [18] concerns SN12C.
Test [19] concerns HL-60.
In test [20] the test system is SR.

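All cell lines were grown in 96-well plates and treated with compound for 48 hours. Here, GI50 denotes the concentration required for 50% inhibition of growth.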 Activity calls are given as the source filed them. No stated cut-off is given here; in the data, active = GI50 up to about 1.1 µM and inactive = higher. *1 amine or outer side, *2 acyl side, *3 side chain or, on linkers, in order; H or OH if unused. Where a SMILES comes first, the peptide text is derived from it. [ ]: non-standard residue; d: D form. The star is where a group is joined. ξ: configuration not given here. X26 = O=C([C@H]1CCC[C@H]1N[*:1])[*:2]; ξW = NC(Cc1c[nH]c2ccccc12)C(=O)O; ξF = NC(Cc1ccccc1)C(=O)O; Boc = CC(C)(C)OC(=O)*; ξK = NCCCCC(N)C(=O)O; ξT = CC(O)C(N)C(=O)O; tBu = CC(C)(C)*

For `CC(C)[Si]1(C(C)C)OCC2OC(N3C(=O)NC(=O)C[C@@H]3C(O)c3ccccc3)CC2O[Si](C(C)C)(C(C)C)O1` (stereo not given in full), the GI50 was 11.2 µM (inactive) in test [1]; 3.03 µM (inactive) in test [2]; 8.91 µM (inactive) in [3]; 13.2 µM (inactive) in [4]; 3.4 µM (inactive) in [5]; 2.15 µM (inactive) in test [6]. Besides, the GI50 in test [7] was 2.54 µM (inactive); in test [8], 4.31 µM (inactive); in [9] it was 7.26 µM (inactive); in test [10], 3.3 µM (inactive); in test [11] it was 3.24 µM (inactive); in test [12], 5.93 µM (inactive). The GI50 in [13] is 4.51 µM (inactive); in test [14] it was 3.92 µM (inactive); in test [15] it was 2.76 µM (inactive); in [16] it was 15.4 µM (inactive); in [17], 4.54 µM (inactive); in test [18], 3.86 µM (inactive). Also, the results for the GI50 in test [19] and in [20] were 2.65 µM (inactive) and 1.68 µM (inactive), respectively.

Turning to `N#Cc1cccc(C2ON=C(c3ccc([N+](=O)[O-])cc3)N2C23CC4CC(CC(C4)C2)C3)c1` (stereo not given), the GI50 in [1] is 27.4 µM (inactive); in test [2], > 100 µM (inactive); in test [3], > 100 µM (inactive); in test [4] it was > 100 µM (inactive); in test [5] it was > 100 µM (inactive); in [6], > 100 µM (inactive). Also, the GI50 in test [7] is > 100 µM (inactive); in test [8], > 100 µM (inactive); in test [9] it was 69.2 µM (inactive); in test [10], 39.8 µM (inactive); in test [11], > 100 µM (inactive); in test [12], > 100 µM (inactive). The GI50 is > 100 µM (inactive) in test [13]; 34.4 µM (inactive) in test [14]; > 100 µM (inactive) in test [15]; 11.7 µM (inactive) in test [16]; > 100 µM (inactive) in test [17]; > 100 µM (inactive) in test [18]. Besides, the GI50 in test [19] is 8.69 µM (inactive); in test [20], 7.71 µM (inactive).

As to `CCCCCCCCCCCCCCCCCCOCC(COP(=O)([O-])OCC[N+](C)(C)C)OC` (stereo not given) [EDELFOSINE], the GI50 in test [1] was 21.4 µM (inactive); in test [2], 7.05 µM (inactive); in test [3], 20.5 µM (inactive); in [4], > 100 µM (inactive); in test [5] it was 19.1 µM (inactive); in test [6], 26.4 µM (inactive). Also, the GI50 in test [7] was 7.62 µM (inactive); in [8] it was 20.9 µM (inactive); in test [9] it was 8.75 µM (inactive); in test [10] it was > 100 µM (inactive); in [11] it was 13.6 µM (inactive); in test [12], 22.3 µM (inactive). Besides, the GI50 in test [13] was 41.2 µM (inactive); in test [14] it was 27.5 µM (inactive); in test [15] it was 44.3 µM (inactive); in test [16], 13.1 µM (inactive); in test [17], 8.75 µM (inactive); in [18], 12.1 µM (inactive). In addition, the GI50 is 3.94 µM (inactive) in test [19] and 7.87 µM (inactive) in [20].

As to `O=C1c2ccccc2C(=O)c2sc(Nc3ccccc3Cl)nc21`, the GI50 in test [1] was 19.8 µM (inactive); in test [2] it was 12.9 µM (inactive); in test [3] it was 7.4 µM (inactive); in test [4], 17.6 µM (inactive); in test [5], 4.15 µM (inactive); in test [6] it was 5.56 µM (inactive). Moreover, the GI50 in test [7] is 2.75 µM (inactive); in test [8], 3.68 µM (inactive); in test [9] it was 13.2 µM (inactive); in test [10] it was 11.1 µM (inactive); in test [11], 4.93 µM (inactive); in test [12], 14.6 µM (inactive). Further, the GI50 in test [13] was 15.1 µM (inactive); in test [14] it was 14.3 µM (inactive); in [15], 2.8 µM (inactive); in [16], 4.06 µM (inactive); in [17], 13.6 µM (inactive); in test [18] it was 7.5 µM (inactive). The figures for the GI50 in test [19] and in test [20] were 0.713 µM (active) and 3.93 µM (inactive), respectively.

Consider `CC(C)(C)c1ccc2c(c1)OCc1n[nH]c(n1)COc1cc(C(C)(C)C)ccc1OCCOCCO2`, for which the GI50 in test [1] was 3.01 µM (inactive); in test [2], 3.13 µM (inactive); in test [3], 2.88 µM (inactive); in test [4], 6.52 µM (inactive); in [5], 3.16 µM (inactive); in [6], 2.71 µM (inactive). Also, the GI50 was 5.31 µM (inactive) in test [7]; 2.99 µM (inactive) in test [8]; 3.88 µM (inactive) in [9]; 2.26 µM (inactive) in [10]; 2.8 µM (inactive) in test [11]; 4.45 µM (inactive) in test [12]. The GI50 in test [13] is 2.7 µM (inactive); in test [14], 3.31 µM (inactive); in [15] it was 4.27 µM (inactive); in test [16] it was 4.18 µM (inactive); in test [17], 5.27 µM (inactive); in test [18] it was 4.55 µM (inactive). The GI50 was 4.35 µM (inactive) in test [19] and 3.09 µM (inactive) in test [20].

In the case of `COC(=O)N/N=C(/c1nc2ccc([N+](=O)[O-])cc2nc1O)C(O)c1ccc(OC)c(OC)c1` (stereo not given), the GI50 in test [1] was > 100 µM (inactive); in test [2], 59 µM (inactive); in test [3] it was > 100 µM (inactive); in test [4], > 100 µM (inactive); in test [5] it was > 100 µM (inactive); in test [6] it was > 100 µM (inactive). Moreover, the GI50 in [7] is 37.8 µM (inactive); in test [8], 41.9 µM (inactive); in test [9], > 100 µM (inactive); in [10], 59 µM (inactive); in [11] it was > 100 µM (inactive); in test [12], > 69 µM (inactive). The GI50 in test [13] is > 100 µM (inactive); in test [14], 88.1 µM (inactive); in test [15], 55.2 µM (inactive); in test [16], > 100 µM (inactive); in test [17], > 100 µM (inactive); in test [18], > 100 µM (inactive). Moreover, the GI50 in [19] was > 68.5 µM (inactive); in [20] it was 19.5 µM (inactive).

Take `CN(C)CCNc1ccc2c(=O)n(CCN(C)C)c(=O)n3c4ccccc4c(=O)c1c23`: the GI50 is < 0.0216 µM (active) in test [1]; < 0.0113 µM (active) in test [2]; 0.0614 µM (active) in test [3]; 0.0197 µM (active) in test [4]; < 0.0208 µM (active) in test [5]; 0.0603 µM (active) in [6]. The GI50 in test [7] is < 0.01 µM (active); in [8] it was 0.0182 µM (active); in test [9], 0.0516 µM (active); in test [10], 0.305 µM (active); in test [11], 0.0402 µM (active); in [12] it was < 0.0198 µM (active). Also, the GI50 was 0.116 µM (active) in test [13]; < 0.0174 µM (active) in test [14]; 0.0133 µM (active) in test [15]; 0.0133 µM (active) in test [16]; 0.0513 µM (active) in test [17]; 0.0198 µM (active) in test [18]. Also, the GI50 in test [19] and in [20] was < 0.01 µM (active) each time.

On to `CC(OC(C)(C)C)C1NC(=O)C(CCCCNC(=O)OC(C)(C)C)NC(=O)C(Cc2c[nH]c3ccccc23)NC(=O)C(Cc2ccccc2)NC(=O)[C@H]2CCC[C@H]2NC(=O)C(Cc2ccccc2)NC1=O` (stereo not given in full) (cyclo([X26][ξF][ξW][ξK](Boc)[ξT](tBu)[ξF])), for which the GI50 is 73.3 µM (inactive) in [1]; 38.2 µM (inactive) in [2]; 28.5 µM (inactive) in test [3]; 93.8 µM (inactive) in test [4]; > 100 µM (inactive) in test [5]; 39.2 µM (inactive) in test [6]. For the same compound, the GI50 in test [7] is 9.06 µM (inactive); in test [8] it was 8.71 µM (inactive); in test [9], > 100 µM (inactive); in [10], 2.67 µM (inactive); in test [11] it was 25.5 µM (inactive); in test [12], > 100 µM (inactive). Moreover, the GI50 was > 100 µM (inactive) in [13]; 11.6 µM (inactive) in test [14]; 9.57 µM (inactive) in [15]; > 100 µM (inactive) in [16]; 5.3 µM (inactive) in test [17]; 17.2 µM (inactive) in [18]. Further, the values for the GI50 in test [19] and in [20] were > 100 µM (inactive) and 72.3 µM (inactive), respectively.

With `COc1ccc(/C(CC2OC(=O)c3ccccc32)=N\NC(=O)C[N+](C)(C)C)cc1` (stereo not given), the GI50 was 36 µM (inactive) in [1]; 24.6 µM (inactive) in test [2]; 15.4 µM (inactive) in [3]; 20.5 µM (inactive) in test [4]; 25.5 µM (inactive) in test [5]; 21.7 µM (inactive) in test [6]. The GI50 is 25.1 µM (inactive) in [7]; 15.2 µM (inactive) in test [8]; 23.1 µM (inactive) in test [9]; 36.7 µM (inactive) in test [10]; 17.2 µM (inactive) in test [11]; 23.6 µM (inactive) in test [12]. Besides, the GI50 is 19.7 µM (inactive) in test [13]; 42 µM (inactive) in test [14]; 19.2 µM (inactive) in test [15]; 40.3 µM (inactive) in [16]; 27.7 µM (inactive) in test [17]; 34.7 µM (inactive) in test [18]. In addition, the GI50 in test [19] was 33.4 µM (inactive); in test [20] it was 18.2 µM (inactive).

In the case of `CC(C)c1c(O)ccc2c1CCC1C(C)(C)CCCC21C` (stereo not given), the GI50 in test [1] is 17 µM (inactive); in test [2] it was 17.4 µM (inactive); in [3], 15.2 µM (inactive); in test [4] it was 14.8 µM (inactive); in test [5], 20 µM (inactive); in test [6], 17.7 µM (inactive). Moreover, the GI50 in test [7] is 24.4 µM (inactive); in test [8], 22.9 µM (inactive); in test [9], 18.6 µM (inactive); in [10], 26.7 µM (inactive); in test [11], 18 µM (inactive); in test [12], 18.1 µM (inactive). Moreover, the GI50 in test [13] is 21.3 µM (inactive); in test [14], 19.1 µM (inactive); in [15], 21.6 µM (inactive); in [16], 16.3 µM (inactive); in [17], 18.6 µM (inactive); in test [18], 14.5 µM (inactive). In addition, the figures for the GI50 in test [19] and in test [20] were 29 µM (inactive) and 19.5 µM (inactive), respectively.

The values are drawn from ChEMBL document CHEMBL1201862, “PubChem BioAssay data set” (2004).
